Data taken from the supplement of paper PMC10307832.

Experiments:
Test in all cases: relative viability (nuclei count vs DMSO), 5 days (fraction); higher = more cells survive
PAC-1 + Vorinostat = compound: C=CCc1cccc(/C=N/NC(=O)CN2CCN(Cc3ccccc3)CC2)c1O [PAC-1] + O=C(CCCCCCC(=O)Nc1ccccc1)NO [Vorinostat] (partner 1 µM)
Method in brief: (§1)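 Lung cancer cell lines in 1536-well plates were dosed by pin tool the day after seeding, either with one drug alone or with a fixed anchor-drug dose plus five library-drug doses (not always all listed) in √10 steps. After 5 days, cells were fixed and their nuclei stained in one step (final 0.05% Triton X-100, 1% formaldehyde, 1 ug/ml Hoechst), then counted on 4× images. Relative viability is the nuclei count in treated wells divided by that in vehicle wells. Values are medians of duplicate plates.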

BMX-IN-1 + Palbociclib = compound: C=CC(=O)Nc1cc(-n2c(=O)ccc3cnc4ccc(-c5ccc(NS(C)(=O)=O)cc5)cc4c32)ccc1C [BMX-IN-1] + CC(=O)c1c(C)c2cnc(Nc3ccc(N4CCNCC4)cn3)nc2n(C2CCCC2)c1=O [Palbociclib] (partner 0.5 µM)
Method in brief: as §1

BMX-IN-1 + Vorinostat = compound: C=CC(=O)Nc1cc(-n2c(=O)ccc3cnc4ccc(-c5ccc(NS(C)(=O)=O)cc5)cc4c32)ccc1C [BMX-IN-1] + O=C(CCCCCCC(=O)Nc1ccccc1)NO [Vorinostat] (partner 1 µM)
Method in brief: as §1

BMX-IN-1 + Navitoclax = compound: C=CC(=O)Nc1cc(-n2c(=O)ccc3cnc4ccc(-c5ccc(NS(C)(=O)=O)cc5)cc4c32)ccc1C [BMX-IN-1] + CC1(C)CCC(c2ccc(Cl)cc2)=C(CN2CCN(c3ccc(C(=O)NS(=O)(=O)c4ccc(N[C@H](CCN5CCOCC5)CSc5ccccc5)c(S(=O)(=O)C(F)(F)F)c4)cc3)CC2)C1 [Navitoclax] (partner 0.5 µM)
Method in brief: as §1

PAC-1 + AZD7762 = compound: C=CCc1cccc(/C=N/NC(=O)CN2CCN(Cc3ccccc3)CC2)c1O [PAC-1] + NC(=O)Nc1cc(-c2cccc(F)c2)sc1C(=O)N[C@H]1CCCNC1 [AZD7762] (partner 0.2 µM)
Method in brief: as §1

Cell Line | relative viability (PAC-1 + Vorinostat; first compound 0.02 µM) | relative viability (PAC-1 + Vorinostat; first compound 0.06325 µM) | relative viability (PAC-1 + Vorinostat; first compound 0.2 µM) | relative viability (PAC-1 + Vorinostat; first compound 2 µM) | relative viability (BMX-IN-1 + Palbociclib; first compound 0.02 µM) | relative viability (BMX-IN-1 + Palbociclib; first compound 0.2 µM) | relative viability (BMX-IN-1 + Palbociclib; first compound 0.6325 µM) | relative viability (BMX-IN-1 + Palbociclib; first compound 2 µM) | relative viability (BMX-IN-1 + Vorinostat; first compound 0.02 µM) | relative viability (BMX-IN-1 + Vorinostat; first compound 0.2 µM) | relative viability (BMX-IN-1 + Vorinostat; first compound 0.6325 µM) | relative viability (BMX-IN-1 + Vorinostat; first compound 2 µM) | relative viability (BMX-IN-1 + Navitoclax; first compound 0.02 µM) | relative viability (BMX-IN-1 + Navitoclax; first compound 0.2 µM) | relative viability (BMX-IN-1 + Navitoclax; first compound 0.6325 µM) | relative viability (BMX-IN-1 + Navitoclax; first compound 2 µM) | relative viability (PAC-1 + AZD7762; first compound 0.02 µM) | relative viability (PAC-1 + AZD7762; first compound 0.06325 µM) | relative viability (PAC-1 + AZD7762; first compound 0.2 µM) | relative viability (PAC-1 + AZD7762; first compound 2 µM)
HOP-62 | 0.596 | 0.518 | 0.473 | 0.655 | 0.53 | 0.543 | 0.48 | 0.471 | 0.742 | 0.755 | 0.613 | 0.559 | 1.42 | 1.17 | 1.21 | 1.12 | 0.822 | 0.623 | 0.577 | 0.515
NCI-H727 | 1.09 | 1.1 | 1.06 | 1.13 | 0.611 | 0.672 | 0.625 | 0.592 | 1.11 | 1.3 | 1.29 | 1.2 | 0.333 | 0.443 | 0.471 | 0.426 | 0.547 | 0.615 | 0.671 | 0.711
ChaGo-K-1 | 0.754 | 0.773 | 0.65 | 0.829 | 0.996 | 1.13 | 0.905 | 0.987 | 0.91 | 0.984 | 0.835 | 0.768 | 0.937 | 0.988 | 1.27 | 0.531 | 0.858 | 0.907 | 0.861 | 0.9
BEN | 0.558 | 0.58 | 0.552 | 0.601 | 0.489 | 0.479 | 0.479 | 0.518 | 0.621 | 0.517 | 0.585 | 0.535 | 0.066 | 0.0691 | 0.224 | 0.0676 | 0.712 | 0.626 | 0.618 | 0.828
